Measurements as given in the supplement of paper PMC11208160.

Experiment: recombinant barcode read abundance after kanamycin selection (control-corrected) (log10(CPM+1)); higher = more efficient recombination; sequences stand for … in AGTGCAGAGAAAATCGGCCAGTTTTCTCTGCCTGCAGTCCGCATGCCGT…AGATTTATGCAGCGGACTGCCTTTCTCCCAAAGTGATAAACCGGACAGTATCATGGACCGGTTTTCCCGGTAATCCGTATTTGCAAGGTTGGTTTCACT; site = the 11-nt target
Outline: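 Duplicate cultures were plated either on chloramphenicol/ampicillin LB agar, serving as control, or on chloramphenicol/ampicillin/kanamycin with 0.1 mM IPTG. These came from a pooled E. coli library co-electroporated with a donor plasmid, each member pairing a target with an IS621 bridge RNA target-binding loop. Recombination efficiency equals averaged, control-corrected counts per million of recombinant-junction barcodes. It is listed as log10(CPM+1).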
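Also: IS621 recombinase and bridge RNA in Escherichia coli cells.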

Sequence	recombinant barcode read abundance (log10)
CGGATTGCTTGGGTTCTAACCTGTTGCCT (site CGGATGGCTAG)	0.122
CGGATTGCTTGGGTTCTAACCTGTTGCCT (site CGGATTGCTAG)	0.533
CGGCACACTTGGGTTCTAACCTGTTGCGG (site CGGAACACTCC)	0.06
CGGCACACTTGGGTTCTAACCTGTTGCGG (site CGGCACACTCC)	1.86
CGGCACACTTGGGTTCTAACCTGTTGCGG (site CGGGACACTCC)	0.143
CGGCACACTTGGGTTCTAACCTGTTGCGG (site CGGTACACTCC)	0.582
CGGCCACCTTGGGTTCTAACCTGTTGCTT (site AATGGGGCTCT)	0.0969
CGGCCACCTTGGGTTCTAACCTGTTGCTT (site CGGCCACCTAA)	1.02
CGGCCCACTTGGGTTCTAACCTGTTGCGG (site CGGCCCACTCC)	2.35
CGGCCCACTTGGGTTCTAACCTGTTGCGG (site CGGGCCACTAC)	0.033
CGGCCGCCTTGGGTTCTAACCTGTTGCTT (site CGGCCGCCTAA)	0.69
CGGCCGCCTTGGGTTCTAACCTGTTGCTT (site GGGTCGCCTAA)	0.0563
CGGCTCCCTTGGGTTCTAACCTGTTGCTT (site CGGCTCCCTAA)	1.24
CGGCTCCCTTGGGTTCTAACCTGTTGCTT (site GACACAACTTG)	0.147
CGGGCCACTTGGGTTCTAACCTGTTGCCT (site CAGGCCACTAG)	0.198
CGGGCCACTTGGGTTCTAACCTGTTGCCT (site CCGGCCACTAG)	0.0207
CGGGCCACTTGGGTTCTAACCTGTTGCCT (site CGGGCCACTAG)	0.442
CGGGCCACTTGGGTTCTAACCTGTTGCCT (site CTGGCCACTAG)	0.177
CGGGCCTCTTGGGTTCTAACCTGTTGCTG (site CGGGCCTCTAA)	0.504
CGGGCCTCTTGGGTTCTAACCTGTTGCTG (site CGGGCCTCTCA)	2.82
CGGGCCTCTTGGGTTCTAACCTGTTGCTG (site CGGGCCTCTGA)	0.217
CGGGCCTCTTGGGTTCTAACCTGTTGCTG (site CGGGCCTCTTA)	0.872

Sequence	recombinant barcode read abundance (log10)
CGGGCGTCTTGGGTTCTAACCTGTTGCTA (site ATTCGAGCTAT)	0.116
CGGGCGTCTTGGGTTCTAACCTGTTGCTA (site CGGGCGTCTTA)	1.17
CGGGCTACTTGGGTTCTAACCTGTTGCGG (site CGGGCTACTCC)	3.05
CGGGCTACTTGGGTTCTAACCTGTTGCGG (site GGGACTACTCC)	0.0963
CGGGCTACTTGGGTTCTAACCTGTTGCTA (site CGGGCTACTTA)	1.79
CGGGCTACTTGGGTTCTAACCTGTTGCTA (site GGGGCAACTTA)	0.209
CGGGGCCCTTGGGTTCTAACCTGTTGCTT (site CGGGGCCCTAA)	2.6
CGGGGCCCTTGGGTTCTAACCTGTTGCTT (site GACTAGTCTCT)	0.167
CGGGGTCCTTGGGTTCTAACCTGTTGCTA (site CGGAGTCCTTA)	1.68
CGGGGTCCTTGGGTTCTAACCTGTTGCTA (site CGGCGTCCTTA)	0.41
CGGGGTCCTTGGGTTCTAACCTGTTGCTA (site CGGGGTCCTTA)	2.5
CGGGGTCCTTGGGTTCTAACCTGTTGCTA (site CGGTGTCCTTA)	0.35
CGGTCATCTTGGGTTCTAACCTGTTGCCT (site CGATCATCTAG)	0.331
CGGTCATCTTGGGTTCTAACCTGTTGCCT (site CGCTCATCTAG)	0.171
CGGTCATCTTGGGTTCTAACCTGTTGCCT (site CGGTCATCTAG)	0.537
CGGTCATCTTGGGTTCTAACCTGTTGCCT (site CGTTCATCTAG)	0.417
CGTAAACCTTGGGTTCTAACCTGTTGCGT (site CGTAAACCTAC)	0.451
CGTAAACCTTGGGTTCTAACCTGTTGCGT (site CGTCAACCTAC)	0.0732
CGTAAACCTTGGGTTCTAACCTGTTGCGT (site CGTGAACCTAC)	0.159
CGTAAACCTTGGGTTCTAACCTGTTGCGT (site CGTTAACCTAC)	0.393
CGTAAGACTTGGGTTCTAACCTGTTGCCT (site CGTAAGACTAG)	0.489
CGTAAGACTTGGGTTCTAACCTGTTGCCT (site CGTCAGACTAG)	0.265

Sequence	recombinant barcode read abundance (log10)
CGTAAGACTTGGGTTCTAACCTGTTGCCT (site CGTGAGACTAG)	0.0483
CGTAAGACTTGGGTTCTAACCTGTTGCCT (site CGTTAGACTAG)	0.0104
CGTACCGCTTGGGTTCTAACCTGTTGCCT (site CCTACCGCTAA)	0.153
CGTACCGCTTGGGTTCTAACCTGTTGCCT (site CGTACCGCTAG)	0.496
CGTACCTCTTGGGTTCTAACCTGTTGCTC (site CGTACCTCTAA)	0.056
CGTACCTCTTGGGTTCTAACCTGTTGCTC (site CGTACCTCTCA)	0.0772
CGTACCTCTTGGGTTCTAACCTGTTGCTC (site CGTACCTCTGA)	0.171
CGTACCTCTTGGGTTCTAACCTGTTGCTC (site CGTACCTCTTA)	0.0752
CGTACCTCTTGGGTTCTAACCTGTTGCTG (site CGTACCTCTAA)	0.21
CGTACCTCTTGGGTTCTAACCTGTTGCTG (site CGTACCTCTCA)	0.164
CGTACCTCTTGGGTTCTAACCTGTTGCTG (site CGTACCTCTGA)	0.0169
CGTACCTCTTGGGTTCTAACCTGTTGCTG (site CGTACCTCTTA)	0.0203
CGTAGCCCTTGGGTTCTAACCTGTTGCGG (site ACATATACTAA)	0.157
CGTAGCCCTTGGGTTCTAACCTGTTGCGG (site CGTAGCCCTCC)	0.691
CGTAGGGCTTGGGTTCTAACCTGTTGCCG (site AGTAGGGCTCT)	0.103
CGTAGGGCTTGGGTTCTAACCTGTTGCCG (site CGTAGGGCTCG)	0.102
CGTATAGCTTGGGTTCTAACCTGTTGCCT (site CGTATAGCTAG)	0.285
CGTATAGCTTGGGTTCTAACCTGTTGCCT (site CGTGAAGCTAG)	0.0599
CGTATATCTTGGGTTCTAACCTGTTGCCT (site CGTATATCTAG)	0
CGTATATCTTGGGTTCTAACCTGTTGCCT (site CGTGTAACTAG)	0.0247
CGTATCCCTTGGGTTCTAACCTGTTGCTG (site CGTATCCCTCA)	0.692
CGTATCCCTTGGGTTCTAACCTGTTGCTG (site CGTCTCCCTAA)	0.155

Sequence	recombinant barcode read abundance (log10)
CGTATCTCTTGGGTTCTAACCTGTTGCCT (site CCAATCTCTAG)	0.063
CGTATCTCTTGGGTTCTAACCTGTTGCCT (site CGTATCTCTAG)	0.406
CGTATGACTTGGGTTCTAACCTGTTGCCT (site AGTATGACTAG)	0.28
CGTATGACTTGGGTTCTAACCTGTTGCCT (site CGTATGACTAG)	0.0395
CGTATGACTTGGGTTCTAACCTGTTGCCT (site GGTATGACTAG)	0.103
CGTATGACTTGGGTTCTAACCTGTTGCCT (site TGTATGACTAG)	0.05
CGTCAGCCTTGGGTTCTAACCTGTTGCCT (site CGTCAACCTAG)	0.0431
CGTCAGCCTTGGGTTCTAACCTGTTGCCT (site CGTCACCCTAG)	0.0486
CGTCAGCCTTGGGTTCTAACCTGTTGCCT (site CGTCAGCCTAG)	0.22
CGTCAGCCTTGGGTTCTAACCTGTTGCCT (site CGTCATCCTAG)	0.0681
CGTCGACCTTGGGTTCTAACCTGTTGCAT (site ACCTCTTCTTA)	0.0126
CGTCGACCTTGGGTTCTAACCTGTTGCAT (site CGTCGACCTAT)	0.128
CGTCGGACTTGGGTTCTAACCTGTTGCAG (site CGTCGGACTCT)	0.3
CGTCGGACTTGGGTTCTAACCTGTTGCAG (site TAGTTTGCTTC)	0.0182
CGTCTAGCTTGGGTTCTAACCTGTTGCAT (site CGTCTAGCTAT)	0.255
CGTCTAGCTTGGGTTCTAACCTGTTGCAT (site TCGGCCTCTTA)	0.0729
CGTGACCCTTGGGTTCTAACCTGTTGCTT (site CGGGACCCTAG)	0.0226
CGTGACCCTTGGGTTCTAACCTGTTGCTT (site CGTGACCCTAA)	0.691
CGTGAGACTTGGGTTCTAACCTGTTGCCT (site CGTAAGACTAG)	0.341
CGTGAGACTTGGGTTCTAACCTGTTGCCT (site CGTCAGACTAG)	0.203
